Measurements: patent US5481021A, “Phenyl amidines derivatives useful as platelet aggregation inhibitors” (G. D. Searle & Co., priority 1994, dated 1996)

Key:
[1] = tested on: Platelet aggregation in dog PRP; experiment: In-Vitro Platelet Aggregation in PRP (ADP induced); assay type: cell-based; conditions: Canis lupus familiaris; for IC50: ADP 50 μm, 37° C.; for inhibition at 10 µM: ADP, test concentration 1 × 10^-5
Procedure: In-Vitro Platelet Aggregation in PRP
(§1) Healthy male or female dogs were fasted for 8 hours prior to drawing blood; then 30 ml whole blood was collected using a butterfly needle and 30 cc plastic syringe with 3 ml of 0.129M buffered sodium citrate (3.8%). The syringe was rotated carefully as blood was drawn to mix the citrate. Platelet-rich plasma (PRP) was prepared by centrifugation at 975×g for 3.17 minutes at room temperature, allowing the centrifuge to coast to a stop without braking. The PRP was removed from the blood with a plastic pipette and placed in a plastic capped, 50 ml Corning conical sterile centrifuge tube which was held at room temperature. Platelet poor plasma (PPP) was prepared by centrifuging the remaining blood at 2000×g for 15 minutes at room temperature allowing the centrifuge to coast to a stop without braking. The PRP was adjusted with PPP to a count of 2-3×10^8 platelets per ml. 400 for 5-(p-cyanophenyl)pentanoic acid in Section C of Example 1.
as §1, with “400 μl of the PRP preparation and 50 μl of the compound to be tested or saline were preincubated” for “400”, “1 minute at 37° C.” for “5-(p-cyanophenyl)pentanoic acid”, “a BioData aggregometer (BioData, Horsham, Pa.). 50 μl” for “Section C”, “adenosine 5'diphosphate (ADP) (50 μm final concentration) was added to the cuvettes and the aggregation was monitored for 1 minute. All compounds are tested in duplicate. Results are calculated as follows:” for “Example 1.”
Percent of control=[(maximal OD minus initial OD of compound) divided by
(maximal OD minus initial OD of control saline)]×100. The %
inhibition=100-(percent of control).

[2] = tested on: ex vivo collagen induced platelet aggregation; experiment: Inhibition of ex vivo collagen induced aggregation; assay type: in vivo, dog (Beagle); conditions: dog
Procedure: INHIBITION OF EX VIVO COLLAGEN INDUCED AGGREGATION BY COMPOUNDS OF THE INVENTION
PURPOSE--The purpose of this assay is to determine the effects of antiplatelet compounds on ex vivo collagen induced platelet aggregation when administered either intravenously or orally to dogs.
Pretreatment (control) blood samples are drawn from either conscious or anesthetized dogs (Beagles) and centrifuged to prepare platelet rich plasma (PRP). Aggregatory response to collagen is measured in an aggregometer and used as Control. Compounds are administered, either intragasterically (either by capsule or stomach tube or intravenously. Blood samples are drawn at predetermined intervals after compound administration, PRP prepared and aggregation to collagen determined. Compound inhibition of aggregation is determined by comparing the aggregation response after compound administration to the pretreatment response. The study is continued for a maximum of 24 hours or until the platelet aggregation returns to control levels. (If aggregation is still inhibited after 7 hours, a blood sample is drawn the following morning and tested.) Duration of activity is determined by the length of time platelet aggregation is inhibited after compound administration.

[3] = target: T1, fibrinogen binding to platelets (gpIIb/IIIa) (Homo sapiens, UniProt P05106+P08514); experiment: Fibrinogen Binding Assay (125I-fibrinogen binding to ADP-activated platelets); conditions: ADP 10 μM, 125I-fibrinogen 0.3 μM, 40 min at 37° C., read-out: Human Fg binding IC50
T1 construct: endogenous in cells
Procedure: Fibrinogen binding was performed essentially as described by Plow et al., Blood 70, 110-115 (1987). Briefly, blood from humans who had not been given any antiplatelet drugs in the previous two weeks was collected into 1/10th volume of CCD buffer (100 mM sodium citrates, 136 mM glucose, pH 6.5). The blood was centrifuged for 3 min at 1000×g and platelet rich plasma was transferred to a plastic tube with a plastic pipet and placed on ice. After 15 minutes, 1/2 volume of ice cold CCD buffer was added and the sample was centrifuged at 900×g for 10 min at 2° C. The supernatant was decanted and the platelet pellet was gently resuspended in 1/2 the original volume of ice cold modified Tyrode's buffer (137 mM NaCl, 2.6 mM KCl, 12 mM NaHCO3, 5.5 mM glucose, 15 mM HEPES, 0.5% BSA, pH 7.4). After incubating for 30 minutes at 37° C., the platelet count was adjusted to 4×10^8 platelets/ml with modified Tyrode's buffer. To test samples (final concentration=1×10^8 platelets/ml) were added in sequence: ADP (10 μM), CaCl2 (2 mM), test compound, and ^125 I-fibrinogen (0.3 μM) to the aforesaid final concentrations in a volume of 200 μl. The samples were incubated for 40 min at 37° C. and 50 μl aliquots were centrifuged at 8,000×g through a 20% sucrose solution (400 μl). The tubes were quick frozen and the tips containing the platelet pellet were cut and assayed for bound ^125 I-fibrinogen by gamma scintillation counting. Specific binding was determined in each test by subtracting from the total binding the amount of ^125 I-fibrinogen bound in the presence of a 60-fold excess of unlabeled fibrinogen.

T1 sequence (P08514 32-887 limits assumed): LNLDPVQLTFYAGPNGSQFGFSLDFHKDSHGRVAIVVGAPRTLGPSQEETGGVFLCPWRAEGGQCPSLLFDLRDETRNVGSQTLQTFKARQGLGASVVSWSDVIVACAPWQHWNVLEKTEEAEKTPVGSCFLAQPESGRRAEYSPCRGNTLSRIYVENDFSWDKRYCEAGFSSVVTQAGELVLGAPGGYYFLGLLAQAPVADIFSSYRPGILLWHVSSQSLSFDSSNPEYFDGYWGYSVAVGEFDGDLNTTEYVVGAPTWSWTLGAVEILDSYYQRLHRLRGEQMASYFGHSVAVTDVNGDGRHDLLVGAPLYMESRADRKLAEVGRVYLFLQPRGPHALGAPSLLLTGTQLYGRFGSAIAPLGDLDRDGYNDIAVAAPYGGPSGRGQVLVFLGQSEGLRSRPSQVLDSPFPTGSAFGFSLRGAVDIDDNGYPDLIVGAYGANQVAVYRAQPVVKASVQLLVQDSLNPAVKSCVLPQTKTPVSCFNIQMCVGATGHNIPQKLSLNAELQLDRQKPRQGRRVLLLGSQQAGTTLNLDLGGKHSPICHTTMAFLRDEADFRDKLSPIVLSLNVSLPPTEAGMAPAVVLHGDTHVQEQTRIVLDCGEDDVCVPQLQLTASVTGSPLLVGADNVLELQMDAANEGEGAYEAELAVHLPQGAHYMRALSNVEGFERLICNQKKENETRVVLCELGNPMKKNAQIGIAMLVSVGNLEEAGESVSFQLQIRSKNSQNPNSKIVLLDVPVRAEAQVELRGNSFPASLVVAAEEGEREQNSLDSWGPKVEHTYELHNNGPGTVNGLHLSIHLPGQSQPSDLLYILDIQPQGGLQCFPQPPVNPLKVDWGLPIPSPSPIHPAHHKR
T1 sequence (P08514 891-1039 partner limits assumed): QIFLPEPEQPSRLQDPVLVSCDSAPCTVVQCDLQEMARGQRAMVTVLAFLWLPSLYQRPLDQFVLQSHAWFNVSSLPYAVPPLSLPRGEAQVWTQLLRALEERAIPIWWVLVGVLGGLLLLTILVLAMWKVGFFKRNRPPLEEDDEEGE
T1 sequence (P05106 27-788): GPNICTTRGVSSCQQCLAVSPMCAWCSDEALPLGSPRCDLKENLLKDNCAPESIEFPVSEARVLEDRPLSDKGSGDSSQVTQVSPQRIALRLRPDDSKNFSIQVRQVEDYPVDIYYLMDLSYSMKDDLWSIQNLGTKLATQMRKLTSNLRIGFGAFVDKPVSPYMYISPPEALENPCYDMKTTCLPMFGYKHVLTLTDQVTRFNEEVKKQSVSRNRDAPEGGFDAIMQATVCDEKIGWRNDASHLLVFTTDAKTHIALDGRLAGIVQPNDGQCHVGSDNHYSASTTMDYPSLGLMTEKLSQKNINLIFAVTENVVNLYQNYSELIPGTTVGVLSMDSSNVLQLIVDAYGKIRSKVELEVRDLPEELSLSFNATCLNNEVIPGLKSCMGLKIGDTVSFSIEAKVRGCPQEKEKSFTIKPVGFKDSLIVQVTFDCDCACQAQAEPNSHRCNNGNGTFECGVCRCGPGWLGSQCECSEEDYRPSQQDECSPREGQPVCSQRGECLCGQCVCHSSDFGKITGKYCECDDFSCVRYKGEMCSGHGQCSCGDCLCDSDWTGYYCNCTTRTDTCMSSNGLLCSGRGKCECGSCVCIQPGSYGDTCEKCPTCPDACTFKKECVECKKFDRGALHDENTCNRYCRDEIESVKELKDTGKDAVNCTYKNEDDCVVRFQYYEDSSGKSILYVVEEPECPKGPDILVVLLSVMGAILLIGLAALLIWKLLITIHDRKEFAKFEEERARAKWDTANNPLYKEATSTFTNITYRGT

| SMILES | IC50 [1] | inhibition at 10 µM [1] | Ex-vivo collagen induced aggregation, Max % Inhibition ([2]; 0.1 mg/kg, IV) | Ex-vivo collagen induced aggregation, Max % Inhibition ([2]; .025 mg/kg, IG) | IC50 [3] |
| --- | --- | --- | --- | --- | --- |
| CC(C)CNC(=O)[C@H](CC(=O)O)NC(=O)CCCCc1ccc(C(=N)N)cc1 [3S-[[5-[4-(aminoiminomethyl)phenyl]-1-oxopentyl]amino]-4-[(2-methylpropyl)amino]-4-oxobutanoic acid] | 700 nM | 100% | 100% |  |  |
| N=C(N)c1ccc(CCCCC(=O)N[C@@H](CC(=O)O)C(=O)N(CCC(=O)O)CCc2ccccc2)cc1 [3S-[[5-[4-(Aminoiminomethyl)phenyl]-1-oxopentyl]amino]-4-[(2-carboxyethyl)(2-phenylethyl)amino]-4-oxobutanoic acid] | 10000 nM | 53% |  |  |  |
| N=C(N)c1ccc(/C=C\CCC(=O)N[C@@H](CC(=O)O)C(=O)N[C@@H](Cc2ccccc2)C(=O)O)cc1 [N-[N-[5-[4-(aminoiminomethyl)phenyl]-1-oxo-4Z-pentenyl]-L-α-aspartyl]-L-phenylalanine] | 600 nM | 100% |  |  |  |
| N=C(N)c1ccc(CC(O)CCC(=O)N[C@@H](CC(=O)O)C(=O)N[C@@H](Cc2ccccc2)C(=O)O)cc1 (stereo partly drawn) [N-[N-[5-[4-(aminoiminomethyl)phenyl]-4-hydroxy-1-oxopentyl]-L-α-aspartyl]-L-phenylalanine] |  | 15% |  |  |  |
| COC(=O)C[C@H](NC(=O)CCCCc1ccc(C(=N)N)cc1)C(=O)N[C@@H](Cc1ccccc1)C(=O)OC [N-[5-[4-(aminoiminomethyl)phenyl]-1-oxopentyl]-N-L-α-aspartyl-L-phenylalanine, dimethyl ester] | 400 nM | 100% |  |  |  |
| COc1ccc(CCN(CCC(=O)O)C(=O)[C@H](CC(=O)O)NC(=O)CCCCc2ccc(C(=N)N)cc2)cc1 [3S-[[5-[4-(aminoiminomethyl)phenyl]-1-oxopentyl)amino]-4-[(2-carboxyethyl)(2-(4-methoxyphenyl)ethyl]amino]-4-oxobutanoic acid] |  | 66% |  |  |  |
| CCOC(=O)C[C@H](NC(=O)CCCCc1ccc(C(=N)N)cc1)C(=O)N[C@@H](Cc1ccccc1)C(=O)OCC [N-[N-[5-[4-(aminoiminomethyl)phenyl]-1-oxopentyl]-L-α-aspartyl]-L-phenylalanine, diethyl ester] |  |  |  | 39% |  |
| CN(C(=O)[C@H](CC(=O)O)NC(=O)CCCCc1ccc(C(=N)N)cc1)[C@@H](Cc1ccccc1)C(=O)O [N-[N-[5-[4-(aminoiminomethyl)phenyl]-1-oxopentyl]-L-α-aspartyl]-N-methyl-L-phenylalanine] | 1500 nM | 100% |  |  |  |
| N=C(N)c1ccc2cc(CCC(=O)N[C@@H](CC(=O)O)C(=O)N[C@@H](Cc3ccccc3)C(=O)O)ccc2c1 [N-[N-[3-[6-(aminoiminomethyl)-2-naphthalenyl]-1-oxopropyl]-L-α-aspartyl]-L-phenylalanine] | 5500 nM | 100% |  |  |  |
| N=C(N)c1ccc(/C=C/CCC(=O)N[C@@H](CC(=O)O)C(=O)N[C@@H](Cc2ccccc2)C(=O)O)cc1 [N-[5-[4-(aminoiminomethyl)phenyl]-1-oxo-4E-pentenyl]-N-L-α-aspartyl-L-phenylalanine] | 82 nM | 100% |  |  | 7 nM |
| N=C(N)c1cccc(CCCCC(=O)N[C@@H](CC(=O)O)C(=O)N[C@@H](Cc2ccccc2)C(=O)O)c1 [N-[N-[5-[3-(aminoiminomethyl)phenyl-1-oxopentyl]-L-α-aspartyl]-L-phenylalanine] |  | 25% |  |  |  |
| CN(CC(=O)N[C@@H](CC(=O)O)C(=O)N[C@@H](Cc1ccccc1)C(=O)O)C(=O)CCc1ccc(C(=N)N)cc1 [N-[N-[2-[[3-[4-(aminoiminomethyl)phenyl]-1-oxopropyl]methylamino] -1-oxoethyl]-L-α-aspartyl]-L-phenylalanine] | 700 nM | 100% |  |  |  |
| COc1ccc(CCNC(=O)[C@H](CC(=O)O)NC(=O)CCCCc2ccc(C(=N)N)cc2)cc1 [3S [[5-[4-(aminoiminomethyl)phenyl]-1-oxopentyl]amino]-4-[[2-4-(methoxyphenyl)ethyl]amino]-4-oxobutanoic acid] | 420 nM | 100% |  |  |  |
| CC(C)[C@H](NC(=O)[C@H](CC(=O)O)NC(=O)CCCCc1ccc(C(=N)N)cc1)C(=O)O [N-[5-[4-(aminoiminomethyl)phenyl]-1-oxopentyl]-N-L-α-aspartyl-L-valine] | 130 nM | 100% |  |  |  |
| N=C(N)c1ccc2cc(OCC(=O)N[C@@H](CC(=O)O)C(=O)N[C@@H](Cc3ccccc3)C(=O)O)ccc2c1 [N-[N-[2-[[6-(aminoiminomethyl)-2-naphthalenyl]oxy]-1-oxoethyl]-L-α-aspartyl]-L-phenylalanine] | 1100 nM | 100% |  |  |  |
| N=C(N)c1ccc(CCCCC(=O)N[C@@H](CC(=O)O)C(=O)N(CCC(=O)O)Cc2ccccc2)cc1 [3S-[[5-[4-(aminoiminomethyl)phenyl]-1-oxopentyl]amino]-4-[(2-carboxyethyl)(phenylmethyl)amino]-4-oxobutanoic acid] | 4300 nM | 100% |  |  |  |
| N=C(N)c1ccc(CC(=O)CCC(=O)N[C@@H](CC(=O)O)C(=O)N[C@@H](Cc2ccccc2)C(=O)O)cc1 [N-[N-[5-[4-(aminoiminomethyl)phenyl]-1,4-dioxopentyl]-L-α-aspartyl]-L-phenylalanine] | 180 nM | 100% |  |  |  |
| N=C(N)c1ccc(CCCCC(=O)N[C@@H](CC(=O)O)C(=O)NCCc2c[nH]c3ccccc23)cc1 [3S-[[5-[4-(aminoiminomethyl)phenyl]-1-oxopentyl]amino]-4-[[2-(1H-indol-3-yl)ethyl]amino]-4-oxobutanoic acid] | 280 nM | 100% |  |  |  |
| N=C(N)c1ccc(CCCC(=O)N[C@@H](CC(=O)O)C(=O)N[C@@H](Cc2ccccc2)C(=O)O)cc1 [N-[N-[4-[4-(aminoiminomethyl)phenyl]-1-oxobutyl]-L-α-aspartyl]-L-phenylalanine] |  | 4% |  |  |  |
| CC(C)CN(CCC(=O)O)C(=O)[C@H](CC(=O)O)NC(=O)CCCCc1ccc(C(=N)N)cc1 [3S-[[5-[4-(aminoiminomethyl)phenyl]-1-oxopentyl]amino]-4-[(2-carboxyethyl)(2-methylpropyl)amino]-4-oxobutanoic acid] |  | 14% |  |  |  |
| N=C(N)c1ccc(CCCCC(=O)N[C@@H](CC(=O)O)C(=O)NCCc2ccccc2)cc1 [3 S-[[5-[4-(aminoiminomethyl)phenyl]-1-oxopentyl]amino]-4-oxo-4-[(2-phenylethyl)amino]butanoic acid] | 1900 nM | 100% |  |  | 200 nM |
